Assay results from patent US20260224680A1, “COMPOSITIONS FOR INDUCING OR RESCUING GLYCOLYSIS AND METHODS OF USE THEREOF” (Arizona Board of Regents on behalf of Arizona State …, priority 2023, published 2026).

What was measured:
DCs [1] = test: Extracellular flux assays on DCs in vitro (ECAR, respiration); type: cell-based, mouse
Description: (§1) Data represented as mean±std error.
Next, the ability of the F16BP MPs to rescue glycolysis in DCs in the presence of glycolytic inhibitor PFK15 was evaluated using extracellular flux assays. DCs were cultured with either PFK15, F16BP MPs, soluble fructose-6-phosphate (F6P—upstream of PFKFB3) or PFK15+F16BP MPs, or individual components of the F16BP MPs for 2 hr, and extracellular acidification rate (ECAR—rate of glycolysis) measurements were obtained. […] This is important since under conditions of inflammation, DCs need to perform enhanced levels of glycolysis to support the inflammatory protein production.

YUMM1.1 cancer cells = test: Proliferation assay using MTT, YUMM1.1; type: cell-based, mouse; settings: in vitro
DCs [2] = test: DC activation by flow cytometry in vitro; type: cell-based, mouse; settings: in the presence of poly(IC); PFK15 conc.=25 μM
Text: as §1
To test if F16BP MPs can modulate the function of DCs, mRNA-based and peptide-based vaccine F16BP MPs were formulated. These vaccines were generated by intercalating di-phosphorylated melanoma peptide antigen Tyrosine related protein 2 (pTRP2), and poly(IC) and mRNA derived from melanoma cells, which contain several phosphate groups in their backbone (FIG. 12). Since pTRP2p, and poly(IC) have phosphate groups, these molecules can be incorporated into the F16BP MPs using the calcium-phosphate chemistry. The amount of pTRp2, and poly(IC) incorporated within the F16BP MPs was determined to be 78±3.4, and 50.9±7.9 μg, respectively. Next, F16BP MPs intercalated with poly(IC) and pTRP2 were incubated with DCs overnight, and flow cytometry was utilized to test if these particles could activate DCs (FIG. 2I and FIG. 2J).

B16F10 cancer cells = test: Proliferation assay using MTT, B16F10; type: cell-based, mouse; settings: in vitro
B16F10 tumors = test: B16F10 melanoma model, adoptive transfer of Vacc DCs with PFK15; type: in vivo, mouse; settings: day 16; vs no treatment control
Description: To test the versatility of the F16BP-PFK15 system, another aggressive B16F10 melanoma model was chosen (FIG. 4A). In this model, DCs were loaded with F16BP MPs intercalated with mRNA isolated from B16F10 cancer cells, and poly(IC) (Vacc DCs) and adoptively transferred in mice containing B16F10 tumors. This cellular therapy's ability to modulate adaptive immune responses, reduced tumor growth, and improve survival were measured.
To test if the metabolic rescue in DCs can be applied to adoptive cell therapy, adoptive transfer of DC-vaccines was tested in mice (FIG. 16). […] Specifically, 0.75×10^6 B16F10 cells were injected in C57BL/6j immunocompetent mice, and PFK15 was injected every alternate day for the duration of the study (FIG. 16). Moreover, ex vivo DCs loaded with F16BP(mRNA+poly(IC)) (Vacc DCs) or DCs loaded with F16BP MPs were adoptively transferred using retro-orbital injections (RO) on days 6 and 19 (FIG. 15).
To test if the Vacc DCs could modulate the immune responses after their administration, on day 16, spleen, lymph nodes, and tumors were isolated from different conditions and stained for the activation profile of DCs, and T cells. […]
Since Vacc DCs are administered systemically, spleen and cervical lymph nodes were also analysed for the changes in innate and adaptive immune responses (FIG. 19 through FIG. 22).

[3] = DCs cultured 2 hr, vs no treatment control

## O=C(/C=C/c1ccc2ccccc2n1)c1ccncc1 [PFK15]
DCs [1]; [3]
  glycolysis (ECAR): lower than no treatment control
  glycolytic capacity (ECAR): lower than no treatment control
DCs [1]; in the presence of poly(IC)
  glycolysis (ECAR): decreased
  glycolytic capacity (ECAR): decreased
YUMM1.1 cancer cells
  proliferation of YUMM1.1 cancer cells: effective in preventing proliferation
DCs [2]
  activation of DCs (CD80+CD86+ in CD11c+): able to decrease
B16F10 cancer cells
  proliferation of B16F10 cancer cells: effective in preventing proliferation
B16F10 tumors
  total number of CD8+ T cells in the tumor: significantly decreased
